# Test results from ChEMBL document CHEMBL1133708, “A new class of conformationally rigid analogues of 4-amino-5-halopentanoic acids, potent inactivators of gamma-aminobutyric acid aminotransferase” (J Med Chem, 2000).
# pKi: −log10 of the molar value.
# Tests used:
# [1] = target: T1, 4-aminobutyrate aminotransferase, mitochondrial (Sus scrofa, UniProt P80147); experiment: Compound was evaluated for the kinetic constant for the inhibition of Gamma-amino-N-butyrate transaminase
# [2] = target: 4-aminobutyrate aminotransferase, mitochondrial (Sus scrofa) (UniProt P80147); experiment: Compound was evaluated for the kinetic constant for the inactivation of Gamma-amino-N-butyrate transaminase
# Chain of 4-aminobutyrate aminotransferase, mitochondrial (Sus scrofa) (P80147 whole entry): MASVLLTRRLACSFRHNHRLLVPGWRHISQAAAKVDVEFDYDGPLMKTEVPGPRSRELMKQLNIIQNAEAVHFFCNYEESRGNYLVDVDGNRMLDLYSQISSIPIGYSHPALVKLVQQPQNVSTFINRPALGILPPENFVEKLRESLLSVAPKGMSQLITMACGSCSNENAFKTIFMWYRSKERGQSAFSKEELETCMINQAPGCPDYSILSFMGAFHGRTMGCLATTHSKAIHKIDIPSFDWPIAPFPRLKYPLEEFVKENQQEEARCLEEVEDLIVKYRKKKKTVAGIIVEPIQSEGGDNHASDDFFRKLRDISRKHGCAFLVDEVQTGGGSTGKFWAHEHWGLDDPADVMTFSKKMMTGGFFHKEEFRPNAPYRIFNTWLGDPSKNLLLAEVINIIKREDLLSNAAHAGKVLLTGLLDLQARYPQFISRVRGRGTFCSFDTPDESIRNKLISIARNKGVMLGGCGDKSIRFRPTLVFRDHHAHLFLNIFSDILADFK
# [3] = target: 4-aminobutyrate aminotransferase, mitochondrial (Sus scrofa) (UniProt P80147); experiment: Compound was evaluated for the kinetic constant for the inhibition of Gamma-amino-N-butyrate transaminase; NA means no inactivation
# [4] = Selectivity ratio of Kinact/KI
# [5] = target: T1, 4-aminobutyrate aminotransferase, mitochondrial; experiment: Compound was evaluated for the competitive inhibition of Gamma-amino-N-butyrate transaminase
# T1 sequence (P80147 whole entry): as above
SMILES,pKi [1],kinact [2] [min⁻¹],NA [3],K inact/Ki [4] [M⁻¹ s⁻¹],pKi [5]
NC(CF)CCC(=O)O (configuration not stated),3.40,0.5,,,
N[C@H]1C[C@@H](C(=O)O)CC1(F)F,,,No inactivation,,
N[C@H]1[C@@H](F)[C@@H](C(=O)O)C[C@@H]1Br,2.50,0.023,,0.122,2.80
N[C@H]1C[C@@H](C(=O)O)C[C@@H]1F,3.37,0.03,,1.17,4.92
N[C@H]1[C@H](O)[C@@H](C(=O)O)C[C@@H]1Br,,,No inactivation,,2.23

# The next lines start with the values.
pKi [1],kinact [2] [min⁻¹],NA [3],K inact/Ki [4] [M⁻¹ s⁻¹],pKi [5],SMILES
1.31,0.18,,0.0617,2.38,N[C@H]1[C@H](Br)[C@@H](C(=O)O)C[C@@H]1Br
,,No inactivation,,1.89,N[C@H]1[C@H](Br)[C@@H](C(=O)O)C[C@@H]1O
1.80,0.02,,0.0217,2.44,N[C@H]1C[C@@H](C(=O)O)C[C@@H]1Br
,,No inactivation,,2.33,N[C@H]1[C@H](Br)[C@@H](C(=O)O)C[C@@H]1F
,,No inactivation,,1.92,N[C@@H]1CC[C@H](C(=O)O)[C@H]1Br
